# PubChem BioAssay (NCI)
# “And” between values parts separate entries of the source, which are not always exact repeats. Identical values can stand only once.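 Step 1: Grow cells in 96-well plates. Step 2: Expose to compound for 48 hours at 5 concentrations. Step 3: Interpolate endpoints linearly; if unreached, use highest concentration. The concentration for 50% growth inhibition is given as GI50. Definition used: TGI = concentration required for complete inhibition of growth.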
# How the values were obtained:
# Experiment in all cases: inhibition of tumour cell growth, NCI panel, 48 h
# RXF 393 renal = tested on: RXF 393 renal
# MOLT-4 leukemia = tested on: MOLT-4 leukemia
# UACC-62 melanoma = tested on: UACC-62 melanoma
# CCRF-CEM leukemia = tested on: CCRF-CEM leukemia
# A498 renal = tested on: A498 renal
# UACC-257 melanoma = tested on: UACC-257 melanoma
# MCF7 breast = tested on: MCF7 breast
# SK-MEL-5 melanoma = tested on: SK-MEL-5 melanoma
# 786-0 renal = tested on: 786-0 renal
# NCI-H460 lung = tested on: NCI-H460 lung
Compound,GI50 (RXF 393 renal) [µM],TGI (RXF 393 renal) [µM],GI50 (MOLT-4 leukemia) [µM],TGI (MOLT-4 leukemia) [µM],GI50 (UACC-62 melanoma) [µM],TGI (UACC-62 melanoma) [µM],GI50 (CCRF-CEM leukemia) [µM],TGI (CCRF-CEM leukemia) [µM],GI50 (A498 renal) [µM],TGI (A498 renal) [µM],GI50 (UACC-257 melanoma) [µM],TGI (UACC-257 melanoma) [µM],GI50 (MCF7 breast) [µM],TGI (MCF7 breast) [µM],GI50 (SK-MEL-5 melanoma) [µM],TGI (SK-MEL-5 melanoma),GI50 (786-0 renal) [µM],TGI (786-0 renal) [µM],GI50 (NCI-H460 lung) [µM],TGI (NCI-H460 lung) [µM]
CN(C)CCCn1c(=O)c2ccccc2c2ccccc21,12.5,26.7,6.46,> 100,17,33.6,22,> 100,15.7,30.6,12.6,26.6,7.24,> 100,12.3,24.9 µM,12.5,> 100,7.55,25.8
COc1cc2c(cc1OCCCn1c(-c3ccccn3)nc3ccccc31)N=C[C@@H]1CCCN1C2=O,0.571,3.64,4.38,> 28.6,1.48,3.04,15.7,> 25,3.96,14.5,2.11,9.42,0.632,3.47,1.57,2.96 µM,2.76,10.9,1.88,4.34
NC(CSC1c2ccccc2-c2ccccc21)C(=O)O (stereo not drawn),–,> 100,–,> 100,–,> 100,–,> 100,–,> 100,–,> 100,–,> 100,–,> 100 µM,–,> 100,–,> 100
Cc1cc(S(=O)(=O)/N=C(/N)Nc2ccccc2O)c(SCc2ccccc2)cc1Cl,12.1,27.9,3.01,42.3,9.6,22.7,5.95,39.8,21.2,39.1,14.6,30.4,15.9,55.7,14.6,30.5 µM,18.6,35,7.64,50.7
COc1cc2c3c(n(C)c(=O)c2cc1OC)-c1cc2c(cc1/C3=C\CCCCN1C(=O)c3ccccc3C1=O)OCO2,56.5,> 100,2.07,13.4,6.01,37.6,9.71,43.7,2.79,37.1,23.4,> 100,10.8,53.9,13,39.4 µM,16,> 100,3.52,43.7
COc1ccccc1-c1cc(=O)c2cc(C)cnc2[nH]1,–,> 100,–,> 100,–,> 100,–,55.2,–,79.2,–,> 100,–,> 100,20.4,> 100 µM,41.4,> 100,32.6,> 100
C[C@@H]1CN(Cc2ccc(F)cc2)[C@@H](C)CN1C(=O)c1cc2c(C(=O)C(=O)N(C)C)cn(C)c2cc1Cl,12.3,27.6,17.9,45.5,5.86,23.9,18.5,50.2,9.9,43.8,15.7,34.7,15.2,37.3,13.1,26 µM,21.2,67.1,16.8,37.4
Fc1ccc(/C=N/n2c(-c3ccc(F)c(Cl)c3)nn(CNc3ccccc3C(F)(F)F)c2=S)cc1,59.4,> 100,28.4,> 100,39.2,> 100,51.6,> 100,12.5,63.7,42.5,> 100,30.7,> 100,33,> 100 µM,75.4,> 100,43.3,> 100
c1cnn2ncc(-c3ccnc(NCCCN4CCOCC4)n3)c2c1,3.34,7.78,9.61,> 25,5.86,18.4,7.73,> 25,4.18,12.2,6.68,> 22.1,5.97,> 19,3.63,9.7 µM,8.63,> 25,6.56,> 25
COc1cc(N2C(=O)[C@H](O)C2c2ccc(SC)cc2)cc(OC)c1OC (stereo partly drawn),< 0.01,> 100,0.0334,53.4,< 0.01,> 100,< 0.01,> 100,< 0.01,0.0882,14.6,> 100,< 0.01,> 100,< 0.01,0.0304 µM,< 0.01,55.8,< 0.01,13.1
NC(=O)c1csc(C2OC(CO)C(O)C2O)n1 (stereo not drawn),–,6320,17.8,3600,> 79.7,4960,15.6,–,–,> 9690,–,> 10000,76.3,7340,> 31.6,> 31.6 µM and 8280 µM,15.5,3460,–,> 10000
